According to PubChem BioAssay AID2060902 (Molecular Pharmacology Branch, DTP, NCI, 2025):

Tested on: 485368-065-R3-J5-PDC spheroids with HUVEC/MSC, viability
Test: Anticancer human tumor 485368-065-R3-J5-PDC patient-derived pancreatic carcinoma cell line growth inhibition [RAS]
Conditions: for IC50: curve of first compound; for viability, T/C: stronger effect = lower value
In short: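 Multi-cell-type spheroids: tumor cells plus HUVEC endothelial cells and mesenchymal stem cells. RAS-pathway inhibitors were combined with targeted agents, each dosed in half-log steps down from clinical Cmax, or from 10 microM when Cmax was unknown.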

[1] = second compound 0.000949 µM, first compound 0.000949 µM
[2] = second compound 0.000949 µM, first compound 0.003 µM
[3] = second compound 0.000949 µM, first compound 0.00949 µM
[4] = second compound 0.000949 µM, first compound 0.03 µM
[5] = second compound 0.000949 µM, first compound 0.0949 µM
[6] = second compound 0.000949 µM, first compound 0.3 µM
[7] = second compound 0.003 µM, first compound 0.000949 µM
[8] = second compound 0.003 µM, first compound 0.003 µM
[9] = second compound 0.003 µM, first compound 0.00949 µM
[10] = second compound 0.003 µM, first compound 0.03 µM
[11] = second compound 0.003 µM, first compound 0.0949 µM
[12] = second compound 0.003 µM, first compound 0.3 µM
[13] = second compound 0.00949 µM, first compound 0.000949 µM
[14] = second compound 0.00949 µM, first compound 0.003 µM
[15] = second compound 0.00949 µM, first compound 0.00949 µM
[16] = second compound 0.00949 µM, first compound 0.03 µM
[17] = second compound 0.00949 µM, first compound 0.0949 µM
[18] = second compound 0.00949 µM, first compound 0.3 µM
[19] = second compound 0.03 µM, first compound 0.000949 µM
[20] = second compound 0.03 µM, first compound 0.003 µM
[21] = second compound 0.03 µM, first compound 0.00949 µM
[22] = second compound 0.03 µM, first compound 0.03 µM
[23] = second compound 0.03 µM, first compound 0.0949 µM
[24] = second compound 0.03 µM, first compound 0.3 µM
[25] = second compound 0.0949 µM, first compound 0.000949 µM
[26] = second compound 0.0949 µM, first compound 0.003 µM
[27] = second compound 0.0949 µM, first compound 0.00949 µM
[28] = second compound 0.0949 µM, first compound 0.03 µM
[29] = second compound 0.0949 µM, first compound 0.0949 µM
[30] = second compound 0.0949 µM, first compound 0.3 µM
[31] = second compound 0.3 µM, first compound 0.000949 µM
[32] = second compound 0.3 µM, first compound 0.003 µM
[33] = second compound 0.3 µM, first compound 0.00949 µM
[34] = second compound 0.3 µM, first compound 0.03 µM
[35] = second compound 0.3 µM, first compound 0.0949 µM
[36] = second compound 0.3 µM, first compound 0.3 µM
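Also: spheroids exposed to agents for seven days before readout.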

SMILES: C=CC(=O)N1CCN(c2nc(OCC3CCCN3C)nc3c(F)c(-c4nc(N)cc(C)c4C(F)(F)F)c(Cl)cc23)C(C)C1 (stereo unspecified) + CCn1c(-c2cccnc2C(C)OC)c2c3cc(ccc31)N1CCOC(CC(NC(=O)C(C(C)C)N(C)C(=O)C3(F)CCN(C(=O)C#CC(C)(C)N(C)C)CC3)C(=O)N3CCCC(N3)C(=O)OCC(C)(C)C2)C1
- IC50 (second compound 0.000949 µM): > 1000 nM
- IC50 (second compound 0.003 µM): > 1000 nM
- IC50 (second compound 0.00949 µM): > 1000 nM
- IC50 (second compound 0.03 µM): > 1000 nM
- IC50 (second compound 0.0949 µM): > 1000 nM
- IC50 (second compound 0.3 µM): > 1000 nM
- viability, T/C (second compound 0.000949 µM, first compound 0.00316 µM): 113%
- viability, T/C (second compound 0.000949 µM, first compound 0.01 µM): 96%
- viability, T/C (second compound 0.000949 µM, first compound 0.0316 µM): 102%
- viability, T/C (second compound 0.000949 µM, first compound 0.1 µM): 99.8%
- viability, T/C (second compound 0.000949 µM, first compound 0.316 µM): 105%
- viability, T/C (second compound 0.000949 µM, first compound 1 µM): 97.5%
- viability, T/C (second compound 0.003 µM, first compound 0.00316 µM): 110%
- viability, T/C (second compound 0.003 µM, first compound 0.01 µM): 99.5%
- viability, T/C (second compound 0.003 µM, first compound 0.0316 µM): 107%
- viability, T/C (second compound 0.003 µM, first compound 0.1 µM): 101%
- viability, T/C (second compound 0.003 µM, first compound 0.316 µM): 119%
- viability, T/C (second compound 0.003 µM, first compound 1 µM): 107%
- viability, T/C (second compound 0.00949 µM, first compound 0.00316 µM): 95.9%
- viability, T/C (second compound 0.00949 µM, first compound 0.01 µM): 104%
- viability, T/C (second compound 0.00949 µM, first compound 0.0316 µM): 97.1%
- viability, T/C (second compound 0.00949 µM, first compound 0.1 µM): 103%
- viability, T/C (second compound 0.00949 µM, first compound 0.316 µM): 110%
- viability, T/C (second compound 0.00949 µM, first compound 1 µM): 104%
- viability, T/C (second compound 0.03 µM, first compound 0.00316 µM): 87.6%
- viability, T/C (second compound 0.03 µM, first compound 0.01 µM): 99.6%
- viability, T/C (second compound 0.03 µM, first compound 0.0316 µM): 97.3%
- viability, T/C (second compound 0.03 µM, first compound 0.1 µM): 106%
- viability, T/C (second compound 0.03 µM, first compound 0.316 µM): 107%
- viability, T/C (second compound 0.03 µM, first compound 1 µM): 108%
- viability, T/C (second compound 0.0949 µM, first compound 0.00316 µM): 99.4%
- viability, T/C (second compound 0.0949 µM, first compound 0.01 µM): 99.8%
- viability, T/C (second compound 0.0949 µM, first compound 0.0316 µM): 108%
- viability, T/C (second compound 0.0949 µM, first compound 0.1 µM): 93.9%
- viability, T/C (second compound 0.0949 µM, first compound 0.316 µM): 115%
- viability, T/C (second compound 0.0949 µM, first compound 1 µM): 93.1%
- viability, T/C (second compound 0.3 µM, first compound 0.00316 µM): 96.2%
- viability, T/C (second compound 0.3 µM, first compound 0.01 µM): 104%
- viability, T/C (second compound 0.3 µM, first compound 0.0316 µM): 95.6%
- viability, T/C (second compound 0.3 µM, first compound 0.1 µM): 106%
- viability, T/C (second compound 0.3 µM, first compound 0.316 µM): 105%
- viability, T/C (second compound 0.3 µM, first compound 1 µM): 94.8%

SMILES: CC1(C)CCC(Nc2ncc(C(F)(F)F)c(-c3c[nH]c4c(P(C)(C)=O)c(C#N)ccc34)n2)CN1 (stereo unspecified) + CCn1c(-c2cccnc2C(C)OC)c2c3cc(ccc31)N1CCOC(CC(NC(=O)C(C(C)C)N(C)C(=O)C3(F)CCN(C(=O)C#CC(C)(C)N(C)C)CC3)C(=O)N3CCCC(N3)C(=O)OCC(C)(C)C2)C1
- IC50 (second compound 0.000949 µM): 9.04 nM
- IC50 (second compound 0.003 µM): 15.7 nM
- IC50 (second compound 0.00949 µM): 8.62 nM
- IC50 (second compound 0.03 µM): 7.35 nM
- IC50 (second compound 0.0949 µM): 13.6 nM
- IC50 (second compound 0.3 µM): 17.6 nM
- viability, T/C [1]: 116%
- viability, T/C [2]: 85.7%
- viability, T/C [3]: 48%
- viability, T/C [4]: 47.1%
- viability, T/C [5]: 43.6%
- viability, T/C [6]: 39.9%
- viability, T/C [7]: 109%
- viability, T/C [8]: 73.9%
- viability, T/C [9]: 61%
- viability, T/C [10]: 40.3%
- viability, T/C [11]: 32.7%
- viability, T/C [12]: 35.9%
- viability, T/C [13]: 107%
- viability, T/C [14]: 86.7%
- viability, T/C [15]: 46.6%
- viability, T/C [16]: 40.9%
- viability, T/C [17]: 42.5%
- viability, T/C [18]: 38.2%
- viability, T/C [19]: 108%
- viability, T/C [20]: 66.1%
- viability, T/C [21]: 47.4%
- viability, T/C [22]: 35.2%
- viability, T/C [23]: 38.3%
- viability, T/C [24]: 45.3%
- viability, T/C [25]: 104%
- viability, T/C [26]: 76.2%
- viability, T/C [27]: 54.9%
- viability, T/C [28]: 39.9%
- viability, T/C [29]: 39%
- viability, T/C [30]: 35.5%
- viability, T/C [31]: 102%
- viability, T/C [32]: 92.3%
- viability, T/C [33]: 55.1%
- viability, T/C [34]: 47%
- viability, T/C [35]: 45.6%
- viability, T/C [36]: 42.6%

SMILES: CCc1c2c(nc3ccc(O)cc13)-c1cc3c(c(=O)n1C2)COC(=O)[C@]3(O)CC + CCn1c(-c2cccnc2C(C)OC)c2c3cc(ccc31)N1CCOC(CC(NC(=O)C(C(C)C)N(C)C(=O)C3(F)CCN(C(=O)C#CC(C)(C)N(C)C)CC3)C(=O)N3CCCC(N3)C(=O)OCC(C)(C)C2)C1
- IC50 (second compound 0.000949 µM): 2.21 nM
- IC50 (second compound 0.003 µM): 2.28 nM
- IC50 (second compound 0.00949 µM): 2.14 nM
- IC50 (second compound 0.03 µM): 2.27 nM
- IC50 (second compound 0.0949 µM): 2.05 nM
- IC50 (second compound 0.3 µM): 2.01 nM
- viability, T/C [1]: 84.3%
- viability, T/C [2]: 36.9%
- viability, T/C [3]: 17%
- viability, T/C [4]: 7.78%
- viability, T/C [5]: 3.95%
- viability, T/C [6]: 3.3%
- viability, T/C [7]: 84.1%
- viability, T/C [8]: 39.3%
- viability, T/C [9]: 15.1%
- viability, T/C [10]: 6.58%
- viability, T/C [11]: 5.33%
- viability, T/C [12]: 2.88%
- viability, T/C [13]: 76.9%
- viability, T/C [14]: 39.2%
- viability, T/C [15]: 14.8%
- viability, T/C [16]: 8.64%
- viability, T/C [17]: 4.69%
- viability, T/C [18]: 3.02%
- viability, T/C [19]: 88.8%
- viability, T/C [20]: 37.2%
- viability, T/C [21]: 15.9%
- viability, T/C [22]: 8.19%
- viability, T/C [23]: 3.98%
- viability, T/C [24]: 2.16%
- viability, T/C [25]: 88.1%
- viability, T/C [26]: 29.7%
- viability, T/C [27]: 14.8%
- viability, T/C [28]: 6.96%
- viability, T/C [29]: 4.68%
- viability, T/C [30]: 2.71%
- viability, T/C [31]: 82.5%
- viability, T/C [32]: 32.2%
- viability, T/C [33]: 12.6%
- viability, T/C [34]: 9.2%
- viability, T/C [35]: 5.3%
- viability, T/C [36]: 2.3%
